From patent EP1379135B1, “FORMULATIONS COMPRISING ENTRAPPED ACTIVE INGREDIENTS AND USES THEREOF” (THE SCRIPPS RESEARCH INSTITUTE, priority 2001, dated 2002)
“Also recorded” adds a separate entry of the source. Like-named read-outs stand apart in the source and are kept apart here.

Legend:
[1] = test system: IL-1β induced NO production in normal human articular chondrocytes; assay: IL-1β induced NO production in cultured chondrocytes (NO2 accumulation, Griess reaction); type: cell-based
Protocol: Chondrocytes were isolated from the cartilage by collagenase digestion and maintained in continuous monolayer cultures in DMEM containing 10% fetal bovine serum (FBS). Cell viability after chondrocyte isolation by collagenase digestion of normal cartilage was >95%. This level was maintained for at least 96 hrs post mortem. […] Experiments reported were performed with primary or first passage cells.
(§1) Chondrocytes were plated at 40,000 cells/well in 96-well plates in the presence of 1 % FBS. After 48 h, the medium was changed, and the cells were stimulated with IL-1β (Sigma) at a concentration of 5 ng/ml for 24 h. NO production was detected as NO2 accumulation in the culture supernatants by the Griess reaction as described elsewhere (Heval et al., (1994) Methods Enzymol. 233:250). IL-6 in the culture supernatants was measured by ELISA (R&D Systems, Minneapolis, MN) in accordance with the supplier's protocol.

[2] = test system: TNFα induced nitric oxide (NO) production in normal human articular chondrocytes; assay: TNFα induced NO production in chondrocytes; type: cell-based
[3] = test system: iNOS mRNA; assay: iNOS mRNA expression (Northern Blot); type: cell-based, human
Protocol: (§2) Total RNA was isolated from 2 x 10^6 chondrocytes stimulated using the STAT-60 reagent (Tel-Test, Friendswood, TX). RNA for each sample was quantified photometrically, and 5 µg was separated on 1.2% agarose, 6% formaldehyde gels. After electrophoresis, the gels were photographed, and the RNA was transferred onto HybondN nylon membranes (BRL, Baithesburg, MD) by capillary blotting. Membranes were air-dried and incubated for 2 hrs at 80°C. Prehybridization was done for 2 hrs at 60°C in 5 x SCC, 1 mM EDTA, 0.2% SDS and 5 x Denhardt solution. Radio-labeled probe was added and hybridization was carried out overnight at 60°C. After hybridization, the filters were rinsed twice in 2 x SSC, 0.1% SDS, washed once in 2 x SCC, 0.1 % SDS at 60°C and once in 0.2 x SCC, 0.1 % SDS at 60°C. The membranes were covered with plastic wrap and exposed with an intensifying screen for 12 hr at -70°C. The probes used for the hybridization were prepared as described earlier (Geng et al., (1993) J. Immunol. 151:6692; Geller et al., (1993) Proc. Natl. Acad. Sci. USA 90:3491).

[4] = test system: COX-2 protein; assay: COX-2 protein expression in IL-1β stimulated chondrocytes (Western Immunoblot); type: cell-based, human
Protocol: (§3) Whole cell extracts were prepared from 3 x 10^6 chondrocytes stimulated as described above by lysing the cells on the plate with ice cold lysis buffer (10 mM TrisHCl pH 7.6, 158 mM NaCl, 1 mM EDTA, 0.1% SDS, 1% Triton X-100, leupeptin […], aprotinin 1µg/ml, and 0.5 mM PMSF), which was added immediately before use. The lysates were transferred to Eppendorf tubes and centrifuged at 20,000 g for 30 min at 4 °C. The supernatants were transferred into fresh tubes, and the protein concentration was determined by Bradford assay. Similar amounts of protein were separated by 10% SDS PAGE and transferred to a nitrocellulose filter (Schleicher & Schuell, Keene, NH) by electroblotting. The filter was blocked overnight in 5% milk powder/TBS-T solution and then further incubated with one of the following antibodies: anti-iNOS (C-19, Santa Cruz Biotechnology, Inc., Santa Cruz, CA), anti-COX-2 (Cayman Chemical, Ann Arbor, MI), anti-COX-1 (H-3, Santa Cruz Biotechnology, Inc.), anti-phospho-JNK (phosphoThr 183 /Tyr 185, New England Biolabs, Inc., Beverly, MA), anti-phospho-p38MAP (phospho-Thr […]/Tyr 182, New England Biolabs, Inc.) or anti-phospho-ERK (phosphoThr 180/Tyr 182, New England Biolabs, Inc.) for 2 hrs. […]

[5] = test system: COX-2 mRNA; assay: COX-2 mRNA expression in IL-1β stimulated chondrocytes (Northern Blot); type: cell-based, human
Protocol: as §2

[6] = test system: COX-1 protein; assay: COX-1 protein expression in chondrocytes (Western Immunoblot); type: cell-based, human
Protocol: as §3

[7] = test system: IL-6; assay: IL-6 production in IL-1β stimulated chondrocytes (ELISA); type: cell-based, human; conditions: p < 0.001
Protocol: as §1

[8] = test system: NF-κB; assay: IL-1β-induced nuclear translocation of NF-κB (gel shift of nuclear extracts); type: cell-based, human
Protocol: Nuclear protein extracts were prepared as follows: 2 x 10^6 chondrocytes were stimulated as indicated. The cells were harvested by trypsinization, washed once with ice cold PBS and lysed in 10 mM Tris-HCl buffer pH 7.5 containing 2 mM MgCl2, 140 mM NaCl, 0.5 mM DTT, 0.05% Triton X-100, 0.5 mM PMSF, leupeptin 1 µg/ml and aprotinin 1 µg/ml. The nuclei were spun down, resuspended in 20 mM HEPES buffer pH 7.9, containing 25% glycerol, 420 mM NaCl, 1.5 mM MgCl2, 0.2 mM EDTA, 0.5 mM DTT, 0.5 mM PMSF, leupeptin 1 µg/ml and aprotinin 1 µg/ml, and rotated at 4°C for 30 minutes. After removal of the nuclear debris by centrifugation, the protein concentration of the lysate was determined by Bradford assay. Equal amounts of the nuclear extracts (2 µg) were incubated for 15 minutes at room temperature with poly-(dI-dC)poly-(dI-dC) (0.1 mg/ml), BSA (1 mg/ml), 1 x […] counts of double-stranded radiolabeled oligodeoxynucleotide containing the NF-κB consensus DNA binding site (sequence: 5'-[…]-3') in 20 mM HEPES buffer pH 7.9 containing 10% glycerol, 420 mM NaCl, 1.5 mM MgCl2, 0.2 mM EDTA, 0.5 mM DTT and 0.5 mM PMSF. For competition experiments, unlabeled NF-κB oligodeoxynucleotide or oligodeoxynucleotide containing the Oct-1 consensus sequence were added at 100-fold molar excess to the binding reactions 10 minutes prior to the addition of radiolabeled NFκB oligodeoxynucleotide. […]

[9] = test system: ERK; assay: IL-1β induced MAP kinase activation, ERK (phospho Western blot); type: cell-based, human; conditions: induced by IL-1β
Protocol: as §3

[10] = test system: JNK; assay: IL-1β induced MAP kinase activation, JNK (phospho Western blot); type: cell-based, human; conditions: induced by IL-1β
Protocol: as §3

[11] = test system: chondrocytes; assay: Cell viability, MTT assay; type: cell-based, human; conditions: up to 20 mM

CC(=O)N[C@H]1C(O)O[C@H](CO)[C@@H](O)[C@@H]1O (some centres unmarked) [GlcNAc, N-acetylglucosamine]
NO production triggered by IL-1β [1]: suppressed NO production; also recorded: stronger inhibition of NO production than GA | concentration of maximal inhibitory effect on NO production [1]: 20 mM | concentrations not effective in inhibiting NO production [1]: lower than 1 mM | IC50 ([1]; Homo sapiens, Chondrocyte, IL-1β 5 ng/ml for 24 h, GlcNAc vs GA p < 0.01, read-out: IC50 (inhibition of NO production)): 4.1 ± 1.3 mM | inhibitory activity on IL-1β induced NO production ([1]; concentration of 10 mM): demonstrated inhibitory activity | NO production triggered by IL-1β ([1]; listed as GIcNAc): measurably inhibited NO production in the lower millimolar range | concentrations not effective in inhibiting NO production ([1]; listed as GIcNAc): below 1 mM | TNFα induced nitric oxide (NO) production [2]: inhibit | expression of iNOS mRNA [3]: strongly inhibited | expression of COX-2 protein [4]: inhibited | expression of COX-2 mRNA [5]: inhibited | expression of the constitutively expressed COX-1 protein [6]: did not affect | IL-6 production [7]: inhibited | IL-1β-induced nuclear translocation of NF-κB [8]: did not affect | ERK MAP kinase activation [9]: does not inhibit | JNK MAP kinase activation [10]: does not inhibit | cell viability [11]: Neither GA nor GlcNAc at dosages up to 20 mM affected cell viability
